#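 In this assay, cells in 96-well plates receive the compound at five concentrations for 48 hours. Endpoints are linearly interpolated between the surrounding concentrations. GI50 marks 50% less growth.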 Calls of active or inactive are those of the source. Cut-off read from the data, not from the text of the source: active = GI50 up to about 1.1 µM and inactive = higher.
# Columns and labels:
# Test in all cases: growth of human tumour cells (NCI), 48 h
# MDA-N = test system: MDA-N
# COLO 205 = test system: COLO 205
# MDA-MB-435 = test system: MDA-MB-435
# OVCAR-4 = test system: OVCAR-4
# A549 = test system: A549
# SK-MEL-28 = test system: SK-MEL-28
# UACC-257 = test system: UACC-257
# OVCAR-3 = test system: OVCAR-3
# IGROV-1 = test system: IGROV-1
# CAKI-1 = test system: CAKI-1
# PC-3 = test system: PC-3
# ACHN = test system: ACHN
# HCT-15 = test system: HCT-15
# CCRF-CEM = test system: CCRF-CEM
# DU-145 = test system: DU-145
# EKVX = test system: EKVX
# M14 = test system: M14
# HCC 2998 = test system: HCC 2998
# 786-0 = test system: 786-0
# HCT-116 = test system: HCT-116
# NCI-H522 = test system: NCI-H522
# SK-OV-3 = test system: SK-OV-3
# SNB-19 = test system: SNB-19
# HOP-62 = test system: HOP-62
# BT-549 = test system: BT-549
# NCI-H460 = test system: NCI-H460
# LOX IMVI = test system: LOX IMVI
# SF-539 = test system: SF-539
# SF-268 = test system: SF-268
# MOLT-4 = test system: MOLT-4
# U-251 = test system: U-251
# KM12 = test system: KM12
# HL-60 = test system: HL-60
# HOP-92 = test system: HOP-92
# Malme-3M = test system: Malme-3M
# RXF 393 = test system: RXF 393
# MDA-MB-231 = test system: MDA-MB-231
# NCI-H226 = test system: NCI-H226
# UO-31 = test system: UO-31
# Hs-578T = test system: Hs-578T
# MCF7 = test system: MCF7
# NCI-H23 = test system: NCI-H23
# HT-29 = test system: HT-29
# SK-MEL-5 = test system: SK-MEL-5
# SW-620 = test system: SW-620
# OVCAR-8 = test system: OVCAR-8
# A498 = test system: A498
# SN12C = test system: SN12C
# SNB-75 = test system: SNB-75
# T47D = test system: T47D
# K562 = test system: K562
# OVCAR-5 = test system: OVCAR-5
# TK-10 = test system: TK-10
# NCI/ADR-RES = test system: NCI/ADR-RES
# UACC-62 = test system: UACC-62
# SF-295 = test system: SF-295
# RPMI-8226 = test system: RPMI-8226
# SK-MEL-2 = test system: SK-MEL-2
compound,measurement,setting,value
CSc1c(C#N)c(N)n2c1C(=O)N(c1ccccc1)C2=S,GI50,MDA-N,> 100 µM (inactive)
same,GI50,COLO 205,30 µM (inactive)
same,GI50,MDA-MB-435,> 100 µM (inactive)
same,GI50,OVCAR-4,26.5 µM (inactive)
same,GI50,A549,> 100 µM (inactive)
same,GI50,SK-MEL-28,> 100 µM (inactive)
same,GI50,UACC-257,> 100 µM (inactive)
same,GI50,OVCAR-3,> 100 µM (inactive)
same,GI50,IGROV-1,41.7 µM (inactive)
same,GI50,CAKI-1,77.1 µM (inactive)
same,GI50,PC-3,61.7 µM (inactive)
same,GI50,ACHN,48.2 µM (inactive)
same,GI50,HCT-15,> 100 µM
same,GI50,CCRF-CEM,68.2 µM (inactive)
same,GI50,DU-145,> 100 µM (inactive)
same,GI50,EKVX,8.2 µM (inactive)
same,GI50,M14,> 100 µM (inactive)
same,GI50,HCC 2998,> 100 µM (inactive)
same,GI50,786-0,32.6 µM (inactive)
same,GI50,HCT-116,38.3 µM (inactive)
same,GI50,NCI-H522,21.2 µM (inactive)
same,GI50,SK-OV-3,91.6 µM (inactive)
same,GI50,SNB-19,> 100 µM (inactive)
same,GI50,HOP-62,63 µM (inactive)
same,GI50,BT-549,> 100 µM (inactive)
same,GI50,NCI-H460,> 100 µM (inactive)
same,GI50,LOX IMVI,72.1 µM (inactive)
same,GI50,SF-539,92.7 µM (inactive)
same,GI50,SF-268,88.1 µM (inactive)
same,GI50,MOLT-4,> 100 µM (inactive)
same,GI50,U-251,41.9 µM (inactive)
same,GI50,KM12,51.5 µM (inactive)
same,GI50,HL-60,> 100 µM (inactive)
same,GI50,HOP-92,31.3 µM (inactive)
same,GI50,Malme-3M,90.4 µM (inactive)
same,GI50,RXF 393,> 100 µM (inactive)
same,GI50,MDA-MB-231,20.3 µM (inactive)
same,GI50,NCI-H226,> 100 µM (inactive)
same,GI50,UO-31,> 100 µM (inactive)
same,GI50,Hs-578T,28 µM (inactive)
same,GI50,MCF7,> 100 µM (inactive)
same,GI50,NCI-H23,28.2 µM (inactive)
same,GI50,HT-29,90.2 µM (inactive)
same,GI50,SK-MEL-5,> 100 µM (inactive)
same,GI50,SW-620,85.1 µM (inactive)
same,GI50,OVCAR-8,92.9 µM (inactive)
same,GI50,A498,23 µM (inactive)
same,GI50,SN12C,74 µM (inactive)
same,GI50,SNB-75,53.3 µM (inactive)
same,GI50,T47D,52.6 µM (inactive)
same,GI50,K562,> 100 µM (inactive)
same,GI50,OVCAR-5,> 100 µM (inactive)
same,GI50,TK-10,> 100 µM (inactive)
same,GI50,NCI/ADR-RES,80.5 µM (inactive)
same,GI50,UACC-62,> 100 µM (inactive)
same,GI50,SF-295,38.6 µM (inactive)
CN(C)CCOC(=O)c1ccc(N)cc1,GI50,MDA-N,36.6 µM (inactive)
same,GI50,COLO 205,67.3 µM (inactive)
same,GI50,MDA-MB-435,41.8 µM (inactive)
same,GI50,OVCAR-4,31.6 µM (inactive)
same,GI50,A549,52.4 µM (inactive)
same,GI50,SK-MEL-28,29.1 µM (inactive)
same,GI50,UACC-257,19.4 µM (inactive)
same,GI50,OVCAR-3,45.2 µM (inactive)
same,GI50,IGROV-1,22.4 µM (inactive)
same,GI50,CAKI-1,32.3 µM (inactive)
same,GI50,PC-3,12.1 µM (inactive)
same,GI50,RPMI-8226,24.4 µM (inactive)
same,GI50,ACHN,54.1 µM (inactive)
same,GI50,HCT-15,> 100 µM
same,GI50,CCRF-CEM,20.7 µM (inactive)
same,GI50,DU-145,71.6 µM (inactive)
same,GI50,M14,17.6 µM (inactive)
same,GI50,HCC 2998,16 µM (inactive)
same,GI50,786-0,44.8 µM (inactive)
same,GI50,HCT-116,54.7 µM (inactive)
same,GI50,NCI-H522,20.4 µM (inactive)
same,GI50,SK-OV-3,56.6 µM (inactive)
same,GI50,SNB-19,56.5 µM (inactive)
same,GI50,HOP-62,> 100 µM (inactive)
same,GI50,BT-549,51.1 µM (inactive)
same,GI50,NCI-H460,31.8 µM (inactive)
same,GI50,LOX IMVI,28.7 µM (inactive)
same,GI50,SF-268,41.6 µM (inactive)
same,GI50,MOLT-4,28.2 µM (inactive)
same,GI50,U-251,32.1 µM (inactive)
same,GI50,KM12,37.2 µM (inactive)
same,GI50,HL-60,39 µM (inactive)
same,GI50,HOP-92,12.6 µM (inactive)
same,GI50,Malme-3M,49.8 µM (inactive)
same,GI50,RXF 393,97.1 µM (inactive)
same,GI50,MDA-MB-231,16.1 µM (inactive)
same,GI50,NCI-H226,21.5 µM (inactive)
same,GI50,UO-31,33.8 µM (inactive)
same,GI50,Hs-578T,32.4 µM (inactive)
same,GI50,MCF7,32.6 µM (inactive)
same,GI50,NCI-H23,74.1 µM (inactive)
same,GI50,HT-29,27 µM (inactive)
same,GI50,SK-MEL-5,25.6 µM (inactive)
same,GI50,SW-620,64.4 µM (inactive)
same,GI50,OVCAR-8,70.8 µM (inactive)
same,GI50,A498,38.4 µM (inactive)
same,GI50,SN12C,48.2 µM (inactive)
same,GI50,T47D,58.5 µM (inactive)
same,GI50,K562,30 µM (inactive)
same,GI50,OVCAR-5,29.6 µM (inactive)
same,GI50,TK-10,44.4 µM (inactive)
same,GI50,NCI/ADR-RES,51.2 µM (inactive)
same,GI50,UACC-62,36.8 µM (inactive)
same,GI50,SF-295,47.8 µM (inactive)
C/C=C1/CN2CCC34C(=C(C(=O)OC)C1CC23)Nc1ccc(O)cc14 (stereo not given),GI50,MDA-N,> 100 µM (inactive)
same,GI50,COLO 205,> 100 µM (inactive)
same,GI50,MDA-MB-435,> 100 µM (inactive)
same,GI50,OVCAR-4,> 100 µM (inactive)
same,GI50,A549,> 100 µM (inactive)
same,GI50,SK-MEL-28,> 100 µM (inactive)
same,GI50,SK-MEL-2,> 100 µM (inactive)
same,GI50,UACC-257,> 100 µM (inactive)
same,GI50,OVCAR-3,> 100 µM (inactive)
same,GI50,IGROV-1,> 100 µM (inactive)
same,GI50,CAKI-1,> 100 µM (inactive)
same,GI50,PC-3,> 100 µM (inactive)
same,GI50,RPMI-8226,> 100 µM (inactive)
same,GI50,ACHN,> 100 µM (inactive)
same,GI50,HCT-15,> 100 µM
same,GI50,CCRF-CEM,> 100 µM (inactive)
same,GI50,DU-145,> 100 µM (inactive)
same,GI50,EKVX,> 100 µM (inactive)
same,GI50,M14,> 100 µM (inactive)
same,GI50,HCC 2998,> 100 µM (inactive)
same,GI50,786-0,59.3 µM (inactive)
same,GI50,HCT-116,> 100 µM (inactive)
same,GI50,NCI-H522,> 100 µM (inactive)
same,GI50,SK-OV-3,> 100 µM (inactive)
same,GI50,SNB-19,> 100 µM (inactive)
same,GI50,BT-549,> 100 µM (inactive)
same,GI50,NCI-H460,> 100 µM (inactive)
same,GI50,LOX IMVI,> 100 µM (inactive)
same,GI50,SF-539,> 100 µM (inactive)
same,GI50,SF-268,61.8 µM (inactive)
same,GI50,MOLT-4,> 100 µM (inactive)
same,GI50,U-251,> 100 µM (inactive)
same,GI50,KM12,> 100 µM (inactive)
same,GI50,HL-60,> 100 µM (inactive)
same,GI50,HOP-92,> 100 µM (inactive)
same,GI50,Malme-3M,> 100 µM (inactive)
same,GI50,MDA-MB-231,> 100 µM (inactive)
same,GI50,NCI-H226,> 100 µM (inactive)
same,GI50,UO-31,> 100 µM (inactive)
same,GI50,Hs-578T,34.3 µM (inactive)
same,GI50,MCF7,> 100 µM (inactive)
same,GI50,NCI-H23,> 100 µM (inactive)
same,GI50,HT-29,> 100 µM (inactive)
same,GI50,SK-MEL-5,> 100 µM (inactive)
same,GI50,SW-620,> 100 µM (inactive)
same,GI50,OVCAR-8,> 100 µM (inactive)
same,GI50,A498,> 100 µM (inactive)
same,GI50,SN12C,> 100 µM (inactive)
same,GI50,SNB-75,> 100 µM (inactive)
same,GI50,T47D,> 100 µM (inactive)
same,GI50,OVCAR-5,> 100 µM (inactive)
same,GI50,TK-10,> 100 µM (inactive)
same,GI50,NCI/ADR-RES,> 100 µM (inactive)
same,GI50,UACC-62,> 100 µM (inactive)
same,GI50,SF-295,77.8 µM (inactive)
